In patent US20100137397A1, “Chemical Compounds” (ASTRAZENECA AB, priority 2005, published 2010):

Columns and labels:
hepatocytes = settings: cited from earlier work
[1] = db/db and ob/ob mice; cited from earlier work
[2] = biological target: T1, Human recombinant liver glycogen phosphorylase a (hrl GPa) (Homo sapiens, UniProt P06737); experiment: glycogen phosphorylase a multienzyme coupled assay; format: biochemical; settings: hrl GPa 20 nM, 8 mM glucose, pH7.2, 6 hours at 30° C.
T1 sequence (P06737 1-847): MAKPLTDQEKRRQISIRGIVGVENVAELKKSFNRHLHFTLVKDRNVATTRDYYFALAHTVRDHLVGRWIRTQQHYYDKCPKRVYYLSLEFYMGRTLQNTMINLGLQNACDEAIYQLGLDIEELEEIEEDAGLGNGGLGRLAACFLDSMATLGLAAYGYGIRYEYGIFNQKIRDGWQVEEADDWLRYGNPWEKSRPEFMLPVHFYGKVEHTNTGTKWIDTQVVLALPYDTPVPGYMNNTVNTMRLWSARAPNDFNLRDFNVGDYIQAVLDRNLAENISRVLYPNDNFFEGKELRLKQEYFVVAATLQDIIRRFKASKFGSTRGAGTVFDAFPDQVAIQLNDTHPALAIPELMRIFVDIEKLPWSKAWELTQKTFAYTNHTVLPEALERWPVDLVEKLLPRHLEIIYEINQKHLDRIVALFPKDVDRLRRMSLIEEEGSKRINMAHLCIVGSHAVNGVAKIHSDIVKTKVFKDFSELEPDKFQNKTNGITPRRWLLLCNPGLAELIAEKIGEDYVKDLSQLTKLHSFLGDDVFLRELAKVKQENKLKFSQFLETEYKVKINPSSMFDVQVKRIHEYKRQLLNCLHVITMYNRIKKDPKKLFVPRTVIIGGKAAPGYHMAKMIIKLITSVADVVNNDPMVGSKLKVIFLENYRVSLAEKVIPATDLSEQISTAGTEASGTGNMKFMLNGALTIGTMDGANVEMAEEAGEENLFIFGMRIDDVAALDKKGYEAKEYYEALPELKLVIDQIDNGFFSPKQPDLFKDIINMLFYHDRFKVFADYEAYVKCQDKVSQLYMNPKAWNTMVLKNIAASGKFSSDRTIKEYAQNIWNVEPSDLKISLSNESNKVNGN
Procedure: The activity of the compounds is determined by measuring the inhibitory effect of the compounds on glycogen degradation, the production of glucose-1-phosphate from glycogen is monitored by the multienzyme coupled assay, as described in EP 0 846 464 A2, general method of Pesce et al (Pesce, M A, Bodourian, S H, Harris, R C, and Nicholson, J F (1977) Clinical Chemistry 23, […]). The reactions were in 384well microplate format in a volume of 50 μl. The change in fluorescence due to the conversion of the co-factor NAD to NADH is measured at 340 nm excitation, 465 nm emission in a Tecan Ultra Multifunctional Microplate Reader. The reaction is in 50 mM HEPES, 3.5 mM KH2PO4, 2.5 mM MgCl2, 2.5 mM ethylene glycol-bis(b-aminoethyl ether) N,N,N′,N′-tetraacetic acid, 100 mM KCl, 8 mM D-(+)-glucose pH7.2, containing 0.5 mM dithiothreitol, the assay buffer solution. Human recombinant liver glycogen phosphorylase a (hrl GPa) 20 nM is pre-incubated in assay buffer solution with 6.25 mM NAD, 1.25 mg type III glycogen at 1.25 mg m^−1 the reagent buffer, for 30 minutes. […] The non-inhibited activity of GPa is measured in the presence of 10 μl 5% DMSO in assay buffer solution and maximum inhibition measured in the presence of 5 mgs ml^−1 N-ethylmaleimide. […] Relative Fluoresence Units (RFUs) are measured at 340 nm excitation, 465 nm emission. […]
Activity is calculated as follows:—

[3] = conscious dogs; cited from earlier work

Row | IC50 [2] [nM] | SMILES | glucagon stimulated glycogenolysis and glucose output in hepatocytes (hepatocytes) | plasma glucose concentration [1] | hepatic glucose output and arterial plasma glucose following a glucagon challenge [3]
1 |  | CN(C)C(=O)[C@H](O)[C@H](Cc1ccccc1)NC(=O)c1cc2cc(Cl)ccc2[nH]1 [CP91149] | reduce | reduced, in a dose related manner | 
2 |  | O=C(N[C@@H](Cc1ccc(F)cc1)C(=O)N1CCC(O)CC1)c1cc2cc(Cl)ccc2[nH]1 [CP320626] | reduce | reduced, in a dose related manner | 
3 | 191 | O=C(O)COC[C@@H]1c2ccccc2C[C@H]1NC(=O)c1cc2cc(Cl)sc2[nH]1 [Example 1, [((1R,2R)-2-{[(2-Chloro-6H-thieno[2,3-b]pyrrol-5-yl)carbonyl}amino]-2,3-dihydro-1H-inden-1-yl)methoxy]acetic acid] |  |  | 
4 | 14 | O=C(O)C[C@@H]1c2ccccc2C[C@H]1NC(=O)c1cc2sc(Cl)c(Cl)c2[nH]1 [Example 8, ((1R,2R)-2-{[(2,3-Dichloro-4H-thieno[3,2-b]pyrrol-5-yl)carbonyl]amino}-2,3-dihydro-1H-inden-1-yl)acetic acid] |  |  | 
5 |  | CCN1C(C)=C(C(=O)OC(C)C)C(c2ccccc2Cl)C2=C1COC2=O (stereo not shown) [Bay R 3401] |  |  | reduced significantly
